Measured values reported in patent publication US20070281922A1, “1-Sulfonylindazolylamine and - amide derivatives as 5-hydroxytryptamine-6 ligands” (Wyeth, priority 2006, published 2007).
Structures can show the parent of a compound that is named as a salt.

target: T1, human cloned 5-HT6 receptors (Homo sapiens, UniProt P50406); experiment: 5-HT6 binding affinity, [3H]-LSD displacement on membranes of Hela cells expressing human cloned 5-HT6 receptors; settings: [3H]-LSD 3.0 nM, Hela cell membranes, 120 minutes at room temperature
T1 construct: expressed in transfected cells; host or cells: HeLa cells
Procedure: The affinity of test compounds for the serotonin 5-HT6 receptor was evaluated in the following manner. Cultured Hela cells expressing human cloned 5-HT6 receptors were harvested and centrifuged at low speed (1,000×g) for 10.0 minutes to remove the culture media. The harvested cells were suspended in half volume of fresh physiological phosphate buffered saline solution and recentrifuged at the same speed. This operation was repeated. The collected cells were then homogenized in ten volumes of 50 mM Tris.HCl (pH 7.4) and 0.5 mM EDTA. The homogenate was centrifuged at 40,000×g for 30.0 min and the precipitate was collected. The obtained pellet was resuspended in 10 volumes of Tris.HCl buffer and recentrifuged at the same speed. The final pellet was suspended in a small volume of Tris.HCl buffer and the tissue protein content was determined in aliquots of 10-25 μl volumes. Bovine Serum Albumin was used as the standard in the protein determination according to the method described in Lowry et al., J. Biol. Chem., 193: 265 (1951).
The volume of the suspended cell membranes was adjusted to give a tissue protein concentration of 1.0 mg/ml of suspension. The prepared membrane suspension (10 times concentrated) was aliquoted in 1.0 ml volumes and stored at −70° C. until used in subsequent binding experiments.
Binding experiments were performed in a 96 well microtiter plate format, in a total volume of 200 μl. […] The test compounds were added in 20.0 μl volume.
The reaction was allowed to proceed in the dark for 120 minutes at room temperature, at which time, the bound ligand-receptor complex was filtered off on a 96 well unifilter with a Packard Filtermate® 196 Harvester. The bound complex caught on the filter disk was allowed to air dry and the radioactivity is measured in a Packard TopCount® equipped with six photomultiplier detectors, after the addition of 40.0 μl Microscint®-20 scintillant to each shallow well. The unifilter plate was heat-sealed and counted in a PackardTopCount® with a tritium efficiency of 31.0%.
Binding in the presence of varying concentrations of test compound was expressed as a percentage of specific binding in the absence of test compound. The results were plotted as log % bound versus log concentration of test compound. […] A linear regression line of data points was plotted, from which the IC50 value is determined and the Ki value is determined based upon the following equation: […]
where L was the concentration of the radioactive ligand used and KD is the dissociation constant of the ligand for the receptor, both expressed in nM.

T1 sequence (P50406 whole entry): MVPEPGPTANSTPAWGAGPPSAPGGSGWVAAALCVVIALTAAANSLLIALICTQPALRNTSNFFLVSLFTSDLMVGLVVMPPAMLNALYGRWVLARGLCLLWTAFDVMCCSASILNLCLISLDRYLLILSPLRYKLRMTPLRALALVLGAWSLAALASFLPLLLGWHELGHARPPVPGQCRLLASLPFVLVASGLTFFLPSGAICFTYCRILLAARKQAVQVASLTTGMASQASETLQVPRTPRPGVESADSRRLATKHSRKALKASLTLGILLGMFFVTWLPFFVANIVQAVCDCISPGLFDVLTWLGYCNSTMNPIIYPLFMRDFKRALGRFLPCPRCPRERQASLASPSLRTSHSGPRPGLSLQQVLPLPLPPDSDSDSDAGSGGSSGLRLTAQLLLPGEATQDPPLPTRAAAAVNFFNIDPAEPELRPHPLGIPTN

Ki [nM] | Structure (SMILES)
0.5 | NCCC(=O)Nc1ccc2cnn(S(=O)(=O)c3cccc4ccccc34)c2c1 [Example 4, N^1-[1-(1-naphthylsulfonyl-1-H-indazol-6-yl]beta-alaninamide Hydrochloride]
15 | O=C(CCN1CCCCC1)Nc1ccc2cnn(S(=O)(=O)c3cccc4ccccc34)c2c1 [Example 12]
18.4 | O=S(=O)(c1cccc2ccccc12)n1ncc2ccc(NCC3CCNCC3)cc21 [Example 14, [1-(Naphthalene-1-sulfonyl)-1H-indazol-6-yl]-piperidin-4-ylmethyl-amine dihydrochloride]
2.1 | CCN(CC)CCC(=O)Nc1ccc2cnn(S(=O)(=O)c3cccc4ccccc34)c2c1 [Example 11]
3.4 | O=C(Nc1ccc2cnn(S(=O)(=O)c3cccc4ccccc34)c2c1)C1CCCNC1 (stereo not shown) [Example 9]
7.9 | NCCC(=O)Nc1cccc2c1cnn2S(=O)(=O)c1cccc2ccccc12 [Example 5]
1.8 | CN(C)CCC(=O)Nc1ccc2cnn(S(=O)(=O)c3cccc4ccccc34)c2c1 [Example 10]
2.3 | O=C(Nc1ccc2cnn(S(=O)(=O)c3cccc4ccccc34)c2c1)C1CCNCC1 [Example 8]
1.2 | CNCCC(=O)Nc1ccc2cnn(S(=O)(=O)c3cccc4ccccc34)c2c1 [Example 7]
49.5 | NCCC(=O)Nc1ccc2c(cnn2S(=O)(=O)c2cccc3ccccc23)c1 [Example 6]
